Experimental data as given in patent EP0908457B1, “3-(1,2-benzisothiazol- and isoxazol-5-Y1)-2,4(1H,3H)-pyrimidinedione or thione and 3-(1,2-benzisothiazol- and isoxazol-5-y1)-4(3H)-pyrimidinone or thione herbicidal agents” (BASF AKTIENGESELLSCHAFT, priority 1997, dated 1999).

Experiments:
Sagittaria pygmaea, L. = test: Preemergence weed control under flooded paddy conditions, SAGPY (Arrowhead (Pygmaea)); format: in vivo; conditions: flooded paddy; for herbicidal effect rating, SAGPY / SAGPY herbicidal rating: preemergence; for SAGPY: preemergence weeds, herbicidal effect rating 0-9, three to four weeks after treatment; for herbicidal effect rating, SAGPY: meaning of each grade not given here
Cyperus iria = test: Preemergence weed control under flooded paddy conditions, CYPIR (Rice Flatsedge); format: in vivo; conditions: flooded paddy; for herbicidal effect rating, CYPIR / CYPIR herbicidal rating: preemergence; for CYPIR: preemergence weeds, herbicidal effect rating 0-9, three to four weeks after treatment; for herbicidal effect rating, CYPIR: meaning of each grade not given here
[1] = test system: Monochoria vaginalis, Presl.; test: Preemergence weed control under flooded paddy conditions, MOOVA (Monochoria); format: in vivo; conditions: flooded paddy; for herbicidal effect rating, MOOVA / MOOVA herbicidal rating: preemergence; for MOOVA: preemergence weeds, herbicidal effect rating 0-9, three to four weeks after treatment; for herbicidal effect rating, MOOVA: meaning of each grade not given here
[2] = test system: Cyperus serotinus, Rottb.; test: Preemergence weed control under flooded paddy conditions, CYPSE (Flatsedge); format: in vivo; conditions: for herbicidal effect rating, CYPSE / CYPSE herbicidal rating: preemergence; for CYPSE: preemergence weeds, herbicidal effect rating 0-9, three to four weeks after treatment; for herbicidal effect rating, CYPSE: meaning of each grade not given here
[3] = test system: Oryza sativa, (L.) Tebonnet; test: Rice tolerance to post-transplant applications under flooded paddy conditions (Example 187), ORYSAT (Rice, Tebonnet); conditions: for ORYSAT: herbicidal effect rating 0-9, three to four weeks after treatment; for herbicidal effect rating ORYSAT: meaning of each grade not given here
[4] = test system: Echinochloa oryzoides (Ard.) Fritsch.; test: Preemergence weed control under flooded paddy conditions, ECHORC (Watergrass (Calif.)); format: in vivo; conditions: flooded paddy; for herbicidal effect rating, ECHORC / ECHORC herbicidal rating: preemergence; for ECHORC: preemergence weeds, herbicidal effect rating 0-9, three to four weeks after treatment; for herbicidal effect rating, ECHORC: meaning of each grade not given here
[5] = Rate 0.0620 kg/ha, rated 3-4 weeks after treatment
[6] = Rate 0.1250 kg/ha, rated 3-4 weeks after treatment
[7] = Rate 0.2500 kg/ha, rated 3-4 weeks after treatment
[8] = Rate 0.5000 kg/ha, rated 3-4 weeks after treatment
[9] = 0.0320 kg/ha, rated three to four weeks after treatment
[10] = 0.0620 kg/ha, rated three to four weeks after treatment
[11] = 0.1250 kg/ha, rated three to four weeks after treatment
[12] = 0.2500 kg/ha, rated three to four weeks after treatment
[13] = Rate 0.0320 kg/ha, rated three to four weeks after treatment
[14] = Rate 0.0620 kg/ha, rated three to four weeks after treatment
[15] = Rate 0.1250 kg/ha, rated three to four weeks after treatment
[16] = Rate 0.2500 kg/ha, rated three to four weeks after treatment

CCOC(=O)C(F)(F)Oc1ccc(C)cc1-c1nsc2ccc(-n3c(=O)cc(C(F)(F)F)n(C)c3=O)cc12 [Example 559, Acetic acid, {{2-{5-[3,6-dihydro-3-methyl-2,6-dioxo-4-(trifluoromethyl)-1(2H)-pyrimidinyl]-1,2-benzisothiazol-3-yl}-p-tolyl}oxy}difluoro-, ethyl ester]
1.0: herbicidal effect rating ORYSAT [3, 5] | herbicidal effect rating ORYSAT [3, 6]
6.0: herbicidal effect rating, ECHORC [4, 7]
0.0: herbicidal effect rating, SAGPY (Sagittaria pygmaea, L.; [5]) | herbicidal effect rating, SAGPY (Sagittaria pygmaea, L.; [6]) | herbicidal effect rating, SAGPY (Sagittaria pygmaea, L.; [7]) | herbicidal effect rating, SAGPY (Sagittaria pygmaea, L.; [8]) | herbicidal effect rating, CYPIR (Cyperus iria; [5]) | herbicidal effect rating, CYPIR (Cyperus iria; [6]) | herbicidal effect rating, CYPIR (Cyperus iria; [7]) | herbicidal effect rating, CYPSE [2, 5] | herbicidal effect rating, CYPSE [2, 6]
4.0: herbicidal effect rating, CYPIR (Cyperus iria; [8])
9.0: herbicidal effect rating, MOOVA [1, 5] | herbicidal effect rating, MOOVA [1, 6] | herbicidal effect rating, MOOVA [1, 7] | herbicidal effect rating, MOOVA [1, 8] | herbicidal effect rating, CYPSE [2, 7] | herbicidal effect rating, CYPSE [2, 8] | herbicidal effect rating, ECHORC [4, 8]
3.0: herbicidal effect rating, ECHORC [4, 5] | herbicidal effect rating, ECHORC [4, 6]
2.0: herbicidal effect rating ORYSAT [3, 7] | herbicidal effect rating ORYSAT [3, 8]

C=CCOc1c(I)cc(C)cc1-c1nsc2ccc(-n3c(=O)cc(C(F)(F)F)n(C)c3=O)cc12 [Example 505, 2,4(1H,3H)-Pyrimidinedione, 3-{3-[6-(allyloxy)-5-iodo-m-tolyl]-1,2-benzisothiazol-5-yl}-1-methyl-6-(trifluoromethyl)-]
2.0: SAGPY herbicidal rating (Sagittaria pygmaea, L.; [10]) | SAGPY herbicidal rating (Sagittaria pygmaea, L.; [11])
0.0: SAGPY herbicidal rating (Sagittaria pygmaea, L.; [9]) | CYPIR herbicidal rating (Cyperus iria; [9]) | CYPSE herbicidal rating [2, 10] | CYPSE herbicidal rating [2, 11]
3.0: CYPIR herbicidal rating (Cyperus iria; [11])
9.0: ECHORC herbicidal rating [4, 12]
4.0: SAGPY herbicidal rating (Sagittaria pygmaea, L.; [12]) | CYPIR herbicidal rating (Cyperus iria; [12]) | ORYSAT herbicidal rating (rice tolerance) [3, 9] | ORYSAT herbicidal rating (rice tolerance) [3, 10] | ORYSAT herbicidal rating (rice tolerance) [3, 11]
8.0: MOOVA herbicidal rating [1, 12]
7.0: MOOVA herbicidal rating [1, 9] | MOOVA herbicidal rating [1, 10] | MOOVA herbicidal rating [1, 11] | ECHORC herbicidal rating [4, 11]
6.0: ORYSAT herbicidal rating (rice tolerance) [3, 12] | ECHORC herbicidal rating [4, 9] | ECHORC herbicidal rating [4, 10]

Cn1c(C(F)(F)F)cc(=O)n(-c2ccc3snc(C(=O)NCC(=O)O)c3c2)c1=O [Example 579, Glycine, N-{{5-[3,6-dihydro-3-methyl-2,6-dioxo-4-(trifluoromethyl)-1(2H)-pyrimidinyl]-1,2-benzisothiazol-3-yl}carbonyl}-]
7.0: herbicidal effect rating, MOOVA [1, 14] | herbicidal effect rating, MOOVA [1, 15]
6.0: herbicidal effect rating, CYPIR (Cyperus iria; [16]) | herbicidal effect rating, MOOVA [1, 13]
5.0: herbicidal effect rating, ECHORC [4, 16]
9.0: herbicidal effect rating, MOOVA [1, 16]
3.0: herbicidal effect rating ORYSAT [3, 15] | herbicidal effect rating ORYSAT [3, 16]
2.0: herbicidal effect rating, SAGPY (Sagittaria pygmaea, L.; [16]) | herbicidal effect rating ORYSAT [3, 14] | herbicidal effect rating, ECHORC [4, 13]
4.0: herbicidal effect rating, CYPIR (Cyperus iria; [15]) | herbicidal effect rating, ECHORC [4, 14] | herbicidal effect rating, ECHORC [4, 15]
0.0: herbicidal effect rating, SAGPY (Sagittaria pygmaea, L.; [13]) | herbicidal effect rating, SAGPY (Sagittaria pygmaea, L.; [14]) | herbicidal effect rating, SAGPY (Sagittaria pygmaea, L.; [15]) | herbicidal effect rating, CYPIR (Cyperus iria; [13]) | herbicidal effect rating, CYPIR (Cyperus iria; [14]) | herbicidal effect rating, CYPSE [2, 13] | herbicidal effect rating, CYPSE [2, 14] | herbicidal effect rating, CYPSE [2, 15] | herbicidal effect rating, CYPSE [2, 16] | herbicidal effect rating ORYSAT [3, 13]

COC(=O)C(C)Oc1cc2c(cc1-c1nsc3ccc(-n4c(=O)cc(C(F)(F)F)n(C)c4=O)cc13)CCC2 (centres unmarked) [Example 435, Propionic acid, 2-{{6-{5-[3,6-dihydro-3-methyl-2,6-dioxo-4-(trifluoromethyl)-1(2H)-pyrimidinyl]-1,2-benzisothiazol-3-yl}-5-indanyl}oxy}-, methyl ester]
9.0: MOOVA ([1]; 0.0320 kg/ha) | MOOVA ([1]; 0.0620 kg/ha) | MOOVA ([1]; 0.1250 kg/ha) | MOOVA ([1]; 0.2500 kg/ha) | ECHORC ([4]; 0.2500 kg/ha)
3.0: CYPIR (Cyperus iria; 0.2500 kg/ha) | CYPSE ([2]; 0.1250 kg/ha)
5.0: ECHORC ([4]; 0.0320 kg/ha)
7.0: ECHORC ([4]; 0.0620 kg/ha) | ECHORC ([4]; 0.1250 kg/ha)
1.0: ORYSAT ([3]; 0.0620 kg/ha)
0.0: SAGPY (Sagittaria pygmaea, L.; 0.0320 kg/ha) | SAGPY (Sagittaria pygmaea, L.; 0.0620 kg/ha) | SAGPY (Sagittaria pygmaea, L.; 0.1250 kg/ha) | CYPIR (Cyperus iria; 0.0320 kg/ha) | CYPIR (Cyperus iria; 0.0620 kg/ha) | CYPSE ([2]; 0.0620 kg/ha)
2.0: CYPIR (Cyperus iria; 0.1250 kg/ha) | CYPSE ([2]; 0.2500 kg/ha) | ORYSAT ([3]; 0.0320 kg/ha) | ORYSAT ([3]; 0.1250 kg/ha) | ORYSAT ([3]; 0.2500 kg/ha)
6.0: SAGPY (Sagittaria pygmaea, L.; 0.2500 kg/ha)

Cc1ccsc1C=C(C#N)c1nsc2ccc(-n3c(=O)cc(C(F)(F)F)n(C)c3=O)cc12 [Example 457, 1,2-Benzisothiazole-3-acetonitrile, 5-[3,6-dihydro-3-methyl-2,6-dioxo-4-(trifluoromethyl)-1(2H)-pyrimidinyl]-alpha-(3-methyl-2-thenylidene)-]
4.0: MOOVA ([1]; 0.0620 kg/ha)
7.0: CYPIR (Cyperus iria; 0.2500 kg/ha) | MOOVA ([1]; 0.1250 kg/ha) | MOOVA ([1]; 0.2500 kg/ha) | ECHORC ([4]; 0.0620 kg/ha)
9.0: ECHORC ([4]; 0.1250 kg/ha) | ECHORC ([4]; 0.2500 kg/ha)
0.0: SAGPY (Sagittaria pygmaea, L.; 0.0320 kg/ha) | SAGPY (Sagittaria pygmaea, L.; 0.0620 kg/ha) | CYPIR (Cyperus iria; 0.0320 kg/ha) | CYPSE ([2]; 0.0320 kg/ha) | CYPSE ([2]; 0.0620 kg/ha) | CYPSE ([2]; 0.1250 kg/ha) | CYPSE ([2]; 0.2500 kg/ha) | ORYSAT ([3]; 0.0320 kg/ha) | ORYSAT ([3]; 0.0620 kg/ha) | ORYSAT ([3]; 0.1250 kg/ha)
2.0: MOOVA ([1]; 0.0320 kg/ha)
5.0: CYPIR (Cyperus iria; 0.1250 kg/ha) | ECHORC ([4]; 0.0320 kg/ha)
3.0: SAGPY (Sagittaria pygmaea, L.; 0.1250 kg/ha) | SAGPY (Sagittaria pygmaea, L.; 0.2500 kg/ha) | CYPIR (Cyperus iria; 0.0620 kg/ha) | ORYSAT ([3]; 0.2500 kg/ha)

Cn1c(C(F)(F)F)cc(=O)n(-c2ccc3snc(C(C#N)(Cc4ccccc4)Cc4ccccc4)c3c2)c1=O [Example 582, 1,2-Benzisothiazole-3-acetonitrile, alpha,alpha-dibenzyl-5-[3,6-dihydro-3-methyl-2,6-dioxo-4-(trifluoromethyl)-1(2H)-pyrimidinyl]-]
0.0: herbicidal effect rating, CYPSE [2, 13] | herbicidal effect rating, CYPSE [2, 14] | herbicidal effect rating, CYPSE [2, 15] | herbicidal effect rating ORYSAT [3, 13] | herbicidal effect rating ORYSAT [3, 14] | herbicidal effect rating ORYSAT [3, 15]
7.0: herbicidal effect rating, MOOVA [1, 13] | herbicidal effect rating, MOOVA [1, 14] | herbicidal effect rating, MOOVA [1, 15] | herbicidal effect rating, MOOVA [1, 16] | herbicidal effect rating, CYPSE [2, 16] | herbicidal effect rating, ECHORC [4, 14] | herbicidal effect rating, ECHORC [4, 15]
6.0: herbicidal effect rating, SAGPY (Sagittaria pygmaea, L.; [15]) | herbicidal effect rating, SAGPY (Sagittaria pygmaea, L.; [16]) | herbicidal effect rating, CYPIR (Cyperus iria; [15]) | herbicidal effect rating, CYPIR (Cyperus iria; [16]) | herbicidal effect rating, ECHORC [4, 13]
4.0: herbicidal effect rating, CYPIR (Cyperus iria; [14])
3.0: herbicidal effect rating, CYPIR (Cyperus iria; [13]) | herbicidal effect rating ORYSAT [3, 16]
5.0: herbicidal effect rating, SAGPY (Sagittaria pygmaea, L.; [13]) | herbicidal effect rating, SAGPY (Sagittaria pygmaea, L.; [14])
9.0: herbicidal effect rating, ECHORC [4, 16]
